For orientation: IC50 means the concentration that gives 50% inhibition.

T1 sequence (P00746 26-253): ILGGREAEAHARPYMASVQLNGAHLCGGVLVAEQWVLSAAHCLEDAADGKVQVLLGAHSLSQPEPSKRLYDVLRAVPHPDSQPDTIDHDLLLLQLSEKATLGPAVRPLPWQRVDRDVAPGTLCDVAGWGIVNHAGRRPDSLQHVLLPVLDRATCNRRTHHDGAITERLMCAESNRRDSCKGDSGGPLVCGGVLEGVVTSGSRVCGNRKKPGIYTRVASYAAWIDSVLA

One assay has as its target T1, Human Factor D (Homo sapiens, UniProt P00746).
T1 construct: purified from human serum; purchased Complement Technology, Inc; host or cells: human serum
Description: Human Factor D assay (Example 8). It counts as biochemical. The following applies: Table 2; Human Factor D 80 nM, substrate Z-L-Lys-SBzl; read-out: IC50. Summed up: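 Thioester cleavage assay: human Factor D (serum-derived, 80 nM final), substrate Z-L-Lys-SBzl with DTNB, both 100 μM final, after 5 min compound preincubation at room temperature.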
Consider `NC(=O)c1nn(CC(=O)N2C[C@H](F)C[C@H]2C(=O)Nc2cccc(-c3cc(C(=O)CO)ccc3Cl)c2F)c2ccccc12` [Compound 141, 1-(2-((2S,4R)-2-(2′-chloro-2-fluoro-5′-(2-hydroxyacetyl)bi-phenyl-3-ylcarbamoyl)-4-fluoropyrrolidin-1-yl)-2-oxoethyl)-1H-indazole-3-carboxamide], for which the IC50 was < 1000 nM.

Turning to `O=C(Nc1cccc(-c2ccccc2Cl)c1F)[C@@H]1C[C@@H](F)CN1C(=O)Cn1c(=O)[nH]c2ccccc21` [Compound 142, (2S,4R)-N-(2′-chloro-2-fluorobiphenyl-3-yl)-4-fluoro-1-(2-(2-oxo-2,3-dihydro-1H-benzo[d]imidazol-1-yl)acetyl) pyrrolidine-2-carboxamide], the IC50 was < 1000 nM.

Staying with this assay, now noted: Table 3; Human Factor D 80 nM, substrate Z-L-Lys-SBzl; read-out: IC50 (Stars).
For `NC(=O)c1nn(CC(=O)N2C(=O)CC[C@H]2C(=O)Nc2cccc(-c3ccccc3Cl)c2F)c2ccccc12` [Compound 260, (S)-1-(2-(2-(2′-Chloro-2-fluorobiphenyl-3-ylcarbamoyl)-5-oxopyrrolidin-1-yl)-2-oxoethyl)-1H-indazole-3-carboxamide], the IC50 was < 1000 nM.

As for `CC(=O)c1nn(CC(=O)N2C[Si](C)(C)C[C@H]2C(=O)NCc2cccc(Cl)c2F)c2ccccc12` [Compound 268, (R)-1-(2-(3-acetyl-1H-indazol-1-yl)acetyl)-N-(3-chloro-2-fluorobenzyl)-3,3-dimethyl-1,3-azasilolidine-5-carboxamide], the IC50 fell in the range of 1000 to 10000 nM.

For the compound `CC(=O)c1nn(CC(=O)N2C[Si](C)(C)C[C@H]2C(=O)Nc2cccc(Br)n2)c2ccccc12` [Compound 271, (R)-1-(2-(3-acetyl-1H-indazol-1-yl)acetyl)-N-(6-bromopyridin-2-yl)-3,3-dimethyl-1,3-azasilolidine-5-carboxamide], the IC50 lay within 1000 to 10000 nM.

Regarding `NC(=O)c1nn(CC(=O)N2C[C@H](F)[C@@H](O)[C@H]2C(=O)Nc2cccc(-c3ccccc3Cl)c2F)c2ccccc12` [Compound 279, 1-(2-((2S,3S,4S)-2-(2′-Chloro-2-fluorobiphenyl-3-ylcarbamoyl)-4-fluoro-3-hydroxypyrrolidin-1-yl)-2-oxoethyl)-1H-indazole-3-carboxamide], the 50% inhibitory concentration (IC50) was < 1000 nM.

Consider `CO[C@H]1[C@@H](C(=O)Nc2cccc(-c3ccccc3Cl)c2F)N(C(=O)Cn2nc(C(N)=O)c3ccccc32)C[C@@H]1F` [Compound 289, 1-(2-((2S,3S,4S)-2-(2′-Chloro-2-fluorobiphenyl-3-ylcarbamoyl)-4-fluoro-3-methoxypyrrolidin-1-yl)-2-oxoethyl)-1H-indazole-3-carboxamide], for which the IC50 was < 1000 nM.

Turning to `CC(=O)c1cc(CC(=O)N2C[C@H](F)C[C@H]2C(=O)Nc2cccc(-c3ccccc3Cl)c2F)n2ccccc12` [Compound 312, (2S,4R)-1-(2-(1-Acetylindolizin-3-yl)acetyl)-N-(2′-chloro-2-fluorobiphenyl-3-yl)-4-fluoropyrrolidine-2-carboxamide], the IC50 is < 1000 nM.

Take `CC(=O)c1cc(CC(=O)N2C[C@H](F)C[C@H]2C(=O)Nc2cccc(Br)n2)n2ccccc12` [Compound 314, (2S,4R)-1-(2-(1-Acetylindolizin-3-yl)acetyl)-N-(6-bromopyridin-2-yl)-4-fluoropyrrolidine-2-carboxamide]: the IC50 was < 1000 nM.

Regarding `NC(=O)c1ccc(Cl)c(-c2cccc(NC(=O)[C@@H]3C[C@@H](F)CN3C(=O)Cn3nc(C(N)=O)c4ccccc43)c2F)c1` [Compound 315, 1-(2-((2S,4R)-2-((5′-carbamoyl-2′-chloro-2-fluoro-[1,1′-biphenyl]-3-yl)carbamoyl)-4-fluoropyrrolidin-1-yl)-2-oxoethyl)-1H-indazole-3-carboxamide], the half-maximal inhibitory concentration (IC50) was < 1000 nM.

With `NC(=O)c1nn(CC(=O)N2C[C@H](F)C[C@H]2C(=O)Nc2cccc(-c3cc(F)c(F)cc3Cl)c2F)c2ccc(Br)cc12` [Compound 319, 5-bromo-1-(2-((2S,4R)-2-((2′-chloro-2,4′,5′-trifluoro-[1,1′-biphenyl]-3-yl)carbamoyl)-4-fluoropyrrolidin-1-yl)-2-oxoethyl)-1H-indazole-3-carboxamide], the IC50 is < 1000 nM.

With `CC(=O)c1nn(CC(=O)N2C[C@H](F)C[C@H]2C(=O)Nc2cccc(-c3ccccc3Cl)c2F)c2cc(C)sc12` [Compound 323, (2S,4R)-1-(2-(3-Acetyl-5-methyl-1H-thieno[3,2-c]pyrazol-1-yl)acetyl)-N-(2′-chloro-2-fluoro-[1,1′-biphenyl]-3-yl)-4-fluoropyrrolidine-2-carboxamide], the 50% inhibitory concentration (IC50) is < 1000 nM.

In the case of `CC(=O)c1cn(CC(=O)N2C[C@H](F)C[C@H]2C(=O)Nc2cccc(-c3ccccc3Cl)c2F)c2cc(F)ccc12` [Compound 325, (2S,4R)-1-(2-(3-acetyl-6-fluoro-1H-indol-1-yl)acetyl)-N-(2′-chloro-2-fluoro-[1,1′-biphenyl]-3-yl)-4-fluoropyrrolidine-2-carboxamide], the IC50 was < 1000 nM.

Consider `NC(=O)c1nn(CC(=O)N2C[C@H](F)C[C@H]2C(=O)Nc2cccc(-c3ccccc3Cl)c2F)c2cc(C(=O)O)sc12` [Compound 326, 3-carbamoyl-1-(2-((2S,4R)-2-((2′-chloro-2-fluoro-[1,1′-biphenyl]-3-yl)carbamoyl)-4-fluoropyrrolidin-1-yl)-2-oxoethyl)-1H-thieno[3,2-c]pyrazole-5-carboxylic acid], for which the IC50 was < 1000 nM.

Consider `CC(=O)c1cn(CC(=O)N2C[C@H](F)C[C@H]2C(=O)Nc2cccc(-c3ccccc3Cl)c2F)c2cc(Cl)ccc12` [Compound 328, (2S,4R)-1-(2-(3-acetyl-6-chloro-1H-indol-1-yl)acetyl)-N-(2′-chloro-2-fluoro-[1,1′-biphenyl]-3-yl)-4-fluoropyrrolidine-2-carboxamide], for which the IC50 is < 1000 nM.

On to `NC(=O)c1nn(CC(=O)N2C[C@H](O)C[C@H]2C(=O)Nc2cccc(-c3ccccc3Cl)c2F)c2ccccc12` [Compound 336, 1-(2-((2S,4R)-2-((2′-chloro-2-fluoro-[1,1′-biphenyl]-3-yl)carbamoyl)-4-hydroxypyrrolidin-1-yl)-2-oxoethyl)-1H-indazole-3-carboxamide], for which the 50% inhibitory concentration (IC50) was < 1000 nM.

For `NC(=O)c1nn(CC(=O)N2CCC[C@H]2C(=O)Nc2cccc(-c3ccccc3Cl)c2F)c2ccccc12` [Compound 337, (S)-1-(2-(2-((2′-chloro-2-fluoro-[1,1′-biphenyl]-3-yl)carbamoyl)pyrrolidin-1-yl)-2-oxoethyl)-1H-indazole-3-carboxamide], the IC50 is < 1000 nM.

With `COC(=O)c1cccc(NC(=O)[C@@H]2C[C@@H](F)CN2C(=O)Cn2nc(C(N)=O)c3ccccc32)c1F` [Compound 345, methyl 3-((2S,4R)-1-(2-(3-carbamoyl-1H-indazol-1-yl)acetyl)-4-fluoropyrrolidine-2-carboxamido)-2-fluorobenzoate], the IC50 was < 1000 nM.

On to `Cc1sc(Cl)cc1NC(=O)[C@@H]1C[C@@H](F)CN1C(=O)Cn1nc(C(N)=O)c2ccncc21` [Compound 351], for which the IC50 was 1000 to 10000 nM.

With `NC(=O)c1nn(CC(=O)N2C[C@@H](F)C[C@H]2C(=O)Nc2cccc(-c3ccccc3Cl)c2F)c2ccccc12` [Compound 352, 1-(2-((2S,4S)-2-((2′-chloro-2-fluoro-[1,1′-biphenyl]-3-yl)carbamoyl)-4-fluoropyrrolidin-1-yl)-2-oxoethyl)-1H-indazole-3-carboxamide], the IC50 is < 1000 nM.

Source of the values: US10092584B2 (Achillion Pharmaceuticals, Inc., priority 2015, dated 2018).
